Assay results as given in article doi:10.1101/2025.11.23.690065v1 (biorxiv, 2025).

These molecules were tested against T1, His-TREM2 (TREM2) (Homo sapiens, UniProt Q9NZC2) (assay: MST). Conditions: not given.
T1 sequence (Q9NZC2 19-174 limits assumed): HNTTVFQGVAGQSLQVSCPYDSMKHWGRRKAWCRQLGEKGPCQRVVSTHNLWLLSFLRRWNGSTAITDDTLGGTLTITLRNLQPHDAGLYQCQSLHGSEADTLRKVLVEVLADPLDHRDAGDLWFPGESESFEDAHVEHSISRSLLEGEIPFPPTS
Type: binding

Row | Compound | Kd
1 | Cc1cccc(Cn2cccc(C(=O)NC3CCCCCC3)c2=O)c1 [2M06-8] | > 300 µM
2 | O=C1CCCN1c1ccc2c(c1)CCN2 [6B10-1] | 19.5 ± 6.8 µM
3 | CC(C)(C)CC(=O)Nc1ccc2c(c1)CCN2 [6B10-2] | > 300 µM
4 | COC1(CC(=O)Nc2ccc3c(c2)CCN3)CCC1 [6B10-3] | > 300 µM
5 | CC1(C(=O)Nc2ccc3c(c2)CCN3C(=O)c2ccoc2)CCCC1 [6B10-8] | 127 ± 16 µM
6 | CC(=O)N1CCc2cc(NC(=O)C3(C#N)CCCC3)ccc21 [6B10-13] | > 300 µM
7 | O=C(Nc1ccc2c(c1)CCN2)C1CCCC1 [6B10] | 37.6 ± 15.8 µM
8 | O=C(O)C1CC2CCCCC2N1Cc1cc(=O)n2ccccc2n1 (stereo not drawn) [7G19-5] | 4.5 ± 0.9 µM

Further lines, results first:

Row | Kd | Compound
9 | 124 ± 36 µM | NC(=O)C1CCN(C(=O)c2cccn(Cc3ccccc3)c2=O)CC1 [2M06-1]
10 | > 300 µM | Cn1cc(C(=O)N2C(C(=O)O)CC3CCCCC32)ccc1=O (stereo not drawn) [2M06-6]
11 | 26.1 ± 5.1 µM | Cc1cccc(Cn2cccc(C(=O)N3C(C(=O)O)CC4CCCCC43)c2=O)c1 (stereo not drawn) [2M06]
12 | 68.3 ± 2.8 µM | O=C(Nc1ccc2c(c1)CCN2C(=O)c1ccoc1)C1CC2C=CC1C2 (stereo not drawn) [6B10-9]
13 | 3.8 ± 0.3 µM | Cc1cccn2c(=O)cc(CN3C(C(=O)O)CC4CCCCC43)nc12 (stereo not drawn) [7G19]

Each molecule was assayed against T1, His-TREM2 (TREM2) (assay: nanoDSF thermal shift, dose-response). Conditions: not given.
Type: binding

Row | EC50 | Compound
14 | 62 µM | O=C(Nc1ccc2c(c1)CCN2C(=O)c1ccoc1)C1CC2C=CC1C2 (stereo not drawn) [6B10-9]

The molecules below were run against T2, TREM1 (Homo sapiens, UniProt Q9NP99) (assay: single-dose TRIC/MST screen). Conditions: PBS pH 7.4, 0.05% Tween-20; bound from single-dose screen at 300 µM.
Type: binding

T2 sequence (Q9NP99 21-205 limits assumed): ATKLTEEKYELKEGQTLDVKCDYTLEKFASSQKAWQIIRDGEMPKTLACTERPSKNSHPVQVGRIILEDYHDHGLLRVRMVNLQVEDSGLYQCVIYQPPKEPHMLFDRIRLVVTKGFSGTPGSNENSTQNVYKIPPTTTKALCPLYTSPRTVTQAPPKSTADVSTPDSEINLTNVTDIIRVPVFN

Row | Compound | KD
15 | Cc1cccc(Cn2cccc(C(=O)NC3CCCCCC3)c2=O)c1 [2M06-8] | > 300 µM
16 | CC(C)(C)CC(=O)Nc1ccc2c(c1)CCN2 [6B10-2] | > 300 µM
17 | COC1(CC(=O)Nc2ccc3c(c2)CCN3)CCC1 [6B10-3] | > 300 µM
18 | CC1(C(=O)Nc2ccc3c(c2)CCN3C(=O)c2ccoc2)CCCC1 [6B10-8] | > 300 µM
19 | CC(=O)N1CCc2cc(NC(=O)C3(C#N)CCCC3)ccc21 [6B10-13] | > 300 µM

Second part, the molecule after the results:

Row | KD | Compound
20 | > 300 µM | NC(=O)C1CCN(C(=O)c2cccn(Cc3ccccc3)c2=O)CC1 [2M06-1]
21 | > 300 µM | Cn1cc(C(=O)N2C(C(=O)O)CC3CCCCC32)ccc1=O (stereo not drawn) [2M06-6]
22 | > 300 µM | Cc1cccc(Cn2cccc(C(=O)N3C(C(=O)O)CC4CCCCC43)c2=O)c1 (stereo not drawn) [2M06]
23 | > 300 µM | O=C(Nc1ccc2c(c1)CCN2C(=O)c1ccoc1)C1CC2C=CC1C2 (stereo not drawn) [6B10-9]

What follows are molecules tested against T3, LAG-3 (Homo sapiens, UniProt P18627) (assay: single-dose TRIC screen). Conditions: 2% DMSO; bound from single-dose screen at 300 µM.
T3 sequence (P18627 23-525): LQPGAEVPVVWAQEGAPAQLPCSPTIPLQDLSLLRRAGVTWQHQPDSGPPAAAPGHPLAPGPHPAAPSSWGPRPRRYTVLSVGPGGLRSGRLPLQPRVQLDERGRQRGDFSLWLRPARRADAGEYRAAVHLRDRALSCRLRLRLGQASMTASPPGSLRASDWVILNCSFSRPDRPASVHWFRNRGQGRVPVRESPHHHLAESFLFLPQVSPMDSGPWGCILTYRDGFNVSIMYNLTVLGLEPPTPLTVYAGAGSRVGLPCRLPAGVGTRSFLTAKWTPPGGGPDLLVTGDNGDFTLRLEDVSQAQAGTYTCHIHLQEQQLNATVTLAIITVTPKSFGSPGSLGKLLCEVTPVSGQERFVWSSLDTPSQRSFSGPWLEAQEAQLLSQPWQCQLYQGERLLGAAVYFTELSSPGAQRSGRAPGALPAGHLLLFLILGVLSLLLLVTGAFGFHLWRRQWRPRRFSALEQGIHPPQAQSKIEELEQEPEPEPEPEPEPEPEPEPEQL
Type: binding

Row | Compound | KD
24 | Cc1cccc(Cn2cccc(C(=O)NC3CCCCCC3)c2=O)c1 [2M06-8] | > 300 µM
25 | CC(C)(C)CC(=O)Nc1ccc2c(c1)CCN2 [6B10-2] | > 300 µM
26 | COC1(CC(=O)Nc2ccc3c(c2)CCN3)CCC1 [6B10-3] | > 300 µM
27 | CC1(C(=O)Nc2ccc3c(c2)CCN3C(=O)c2ccoc2)CCCC1 [6B10-8] | > 300 µM
28 | CC(=O)N1CCc2cc(NC(=O)C3(C#N)CCCC3)ccc21 [6B10-13] | > 300 µM
29 | O=C(Nc1ccc2c(c1)CCN2)C1CCCC1 [6B10] | > 300 µM
30 | O=C(O)C1CC2CCCCC2N1Cc1cc(=O)n2ccccc2n1 (stereo not drawn) [7G19-5] | > 300 µM

More lines, now with the values ahead:

Row | KD | Compound
31 | > 300 µM | NC(=O)C1CCN(C(=O)c2cccn(Cc3ccccc3)c2=O)CC1 [2M06-1]
32 | > 300 µM | Cn1cc(C(=O)N2C(C(=O)O)CC3CCCCC32)ccc1=O (stereo not drawn) [2M06-6]
33 | > 300 µM | Cc1cccc(Cn2cccc(C(=O)N3C(C(=O)O)CC4CCCCC43)c2=O)c1 (stereo not drawn) [2M06]
34 | > 300 µM | O=C(Nc1ccc2c(c1)CCN2C(=O)c1ccoc1)C1CC2C=CC1C2 (stereo not drawn) [6B10-9]

Each molecule was assayed against T3, LAG-3 (assay: MST). Conditions: not given.
Type: binding

Row | Kd | Compound
35 | 59.4 ± 14.1 µM | O=C1CCCN1c1ccc2c(c1)CCN2 [6B10-1]
36 | 61.9 ± 23.2 µM | Cc1cccn2c(=O)cc(CN3C(C(=O)O)CC4CCCCC43)nc12 (stereo not drawn) [7G19]

What follows are molecules tested against T1, His-TREM2 (TREM2) (assay: nanoDSF thermal shift). Conditions: read-out: ΔTm at 100 μM.
Type: binding

Row | ΔTm at 100 µM | Compound
37 | > 2 °C | O=C(Nc1ccc2c(c1)CCN2C(=O)c1ccoc1)C1CC2C=CC1C2 (stereo not drawn) [6B10-9]

The molecules below were run against T2, TREM1 (assay: MST). Conditions: not given.
Type: binding

Row | Kd | Compound
38 | 121 ± 3.4 µM | O=C1CCCN1c1ccc2c(c1)CCN2 [6B10-1]
39 | 66.9 ± 28.6 µM | O=C(Nc1ccc2c(c1)CCN2)C1CCCC1 [6B10]
40 | 46.5 ± 38.1 µM | Cc1cccn2c(=O)cc(CN3C(C(=O)O)CC4CCCCC43)nc12 (stereo not drawn) [7G19]

Row | Compound | Kd
41 | O=C(O)C1CC2CCCCC2N1Cc1cc(=O)n2ccccc2n1 (stereo not drawn) [7G19-5] | 56.6 ± 8.6 µM

The molecules below were run against T1, His-TREM2 (TREM2) (assay: biochemical). Conditions: not given.

Row | Kd | Compound
42 | 136 ± 14 µM | CC1(C(=O)Nc2ccc3c(c2)CCN3C(=O)c2ccoc2)CCCC1 [6B10-8]
